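Grown in 96-well plates, cells were treated for 48 hours with each compound at five concentrations. Insufficient inhibition: endpoint recorded as highest concentration tested. GI50 is the concentration that inhibits growth by half. The concentration for full growth arrest is given as TGI.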
What was measured:
Experiment in all cases: NCI tumour cell line growth inhibition, 48 h; in the data active = GI50 below about 0.43 µM; inactive = the rest
HCT-15 colon = system: HCT-15 colon
HT29 colon = system: HT29 colon
SK-MEL-28 melanoma = system: SK-MEL-28 melanoma
HCT-116 colon = system: HCT-116 colon
RXF 393 renal = system: RXF 393 renal
KM12 colon = system: KM12 colon
SW-620 colon = system: SW-620 colon
COLO 205 colon = system: COLO 205 colon
PC-3 prostate = system: PC-3 prostate
MALME-3M melanoma = system: MALME-3M melanoma
MCF7 breast = system: MCF7 breast
SR leukemia = system: SR leukemia
MDA-MB-435 = system: MDA-MB-435
LOX IMVI melanoma = system: LOX IMVI melanoma
A498 renal = system: A498 renal
OVCAR-5 ovarian = system: OVCAR-5 ovarian
NCI-H460 lung = system: NCI-H460 lung
SF-295 CNS = system: SF-295 CNS
HOP-92 NSCLC = system: HOP-92 NSCLC
RPMI-8226 leukemia = system: RPMI-8226 leukemia
NCI-H23 lung = system: NCI-H23 lung
BT-549 breast = system: BT-549 breast
HL-60(TB) leukemia = system: HL-60(TB) leukemia
NCI-H226 lung = system: NCI-H226 lung
OVCAR-3 ovarian = system: OVCAR-3 ovarian
HS 578T breast = system: HS 578T breast
TK-10 renal = system: TK-10 renal
SK-OV-3 ovarian = system: SK-OV-3 ovarian

COc1cc(/C=C/C(=O)c2cc(F)c(Cl)cc2Cl)cc(OC)c1OC
85.8 µM: TGI (PC-3 prostate)
26.4 µM: TGI (KM12 colon)
45 µM: TGI (HT29 colon)
37.7 µM: TGI (MALME-3M melanoma)
45.5 µM: TGI (COLO 205 colon)
40 µM: TGI (OVCAR-3 ovarian)
62.2 µM: TGI (RXF 393 renal)
25.1 µM: TGI (HCT-116 colon)
inactive: GI50 (HCT-15 colon) 19.8 µM | GI50 (HT29 colon) 15.2 µM | GI50 (SK-MEL-28 melanoma) 32 µM | GI50 (HCT-116 colon) 12.6 µM | GI50 (RXF 393 renal) 17.2 µM | GI50 (KM12 colon) 10.5 µM | GI50 (SW-620 colon) 31.9 µM | GI50 (COLO 205 colon) 14.7 µM | GI50 (PC-3 prostate) 12.5 µM | GI50 (MALME-3M melanoma) 10.8 µM | GI50 (MCF7 breast) 32.3 µM | GI50 (SR leukemia) 5.23 µM | GI50 (MDA-MB-435) 28.1 µM | GI50 (LOX IMVI melanoma) 25.1 µM | GI50 (A498 renal) > 100 µM | GI50 (OVCAR-5 ovarian) 25.2 µM | GI50 (NCI-H460 lung) 48.3 µM | GI50 (SF-295 CNS) 44.4 µM | GI50 (HOP-92 NSCLC) 25.9 µM | GI50 (RPMI-8226 leukemia) 15.2 µM | GI50 (NCI-H23 lung) 34.2 µM | GI50 (BT-549 breast) 53.2 µM | GI50 (HL-60(TB) leukemia) 16.6 µM | GI50 (NCI-H226 lung) 79.9 µM | GI50 (OVCAR-3 ovarian) 14.5 µM | GI50 (HS 578T breast) 28.7 µM | GI50 (TK-10 renal) 31 µM | GI50 (SK-OV-3 ovarian) > 100 µM
91.2 µM: TGI (LOX IMVI melanoma)
54.4 µM: TGI (HCT-15 colon)
> 100 µM: TGI (SK-MEL-28 melanoma) | TGI (SW-620 colon) | TGI (MCF7 breast) | TGI (MDA-MB-435) | TGI (A498 renal) | TGI (OVCAR-5 ovarian) | TGI (NCI-H460 lung) | TGI (SF-295 CNS) | TGI (HOP-92 NSCLC) | TGI (NCI-H23 lung) | TGI (BT-549 breast) | TGI (NCI-H226 lung) | TGI (HS 578T breast) | TGI (TK-10 renal) | TGI (SK-OV-3 ovarian)
71.9 µM: TGI (HL-60(TB) leukemia)
39.1 µM: TGI (SR leukemia)
52.9 µM: TGI (RPMI-8226 leukemia)

From PubChem BioAssay (NCI)
